Experimental data from patent publication EP4471049A1 (Zealand Pharma A/S, priority 2023, dated 2024).
pIC50: −log10 of the molar value. *1 amine or outer side, *2 acyl side, *3 side chain or, on linkers, in order; H or OH if unused. Where a SMILES comes first, the peptide text is derived from it. Bridges are numbered along the chain shown (N, C = ends). [ ]: non-standard residue; d: D form. The star is where a group is joined. 2Nal = N[C@@H](Cc1ccc2ccccc2c1)C(=O)O; AEF = NCCOc1ccc(C[C@H](N)C(=O)O)cc1; X1 = O=C(Cc1ccc(CN[*:1])cc1)[*:2]; 3Pal = N[C@@H](Cc1cccnc1)C(=O)O; αMeL = CC(C)C[C@](C)(N)C(=O)O; CH2COCH2 = O=C(C[*:1])C[*:2]; NMeS = CN[C@@H](CO)C(=O)O; Pyrrolidide = C1CCN(*)C1; Dab = NCC[C@H](N)C(=O)O; βAla = NCCC(=O)O

Target: T1, human IL-23R (Homo sapiens, UniProt Q5VWK5)
T1 sequence (Q5VWK5 22-629): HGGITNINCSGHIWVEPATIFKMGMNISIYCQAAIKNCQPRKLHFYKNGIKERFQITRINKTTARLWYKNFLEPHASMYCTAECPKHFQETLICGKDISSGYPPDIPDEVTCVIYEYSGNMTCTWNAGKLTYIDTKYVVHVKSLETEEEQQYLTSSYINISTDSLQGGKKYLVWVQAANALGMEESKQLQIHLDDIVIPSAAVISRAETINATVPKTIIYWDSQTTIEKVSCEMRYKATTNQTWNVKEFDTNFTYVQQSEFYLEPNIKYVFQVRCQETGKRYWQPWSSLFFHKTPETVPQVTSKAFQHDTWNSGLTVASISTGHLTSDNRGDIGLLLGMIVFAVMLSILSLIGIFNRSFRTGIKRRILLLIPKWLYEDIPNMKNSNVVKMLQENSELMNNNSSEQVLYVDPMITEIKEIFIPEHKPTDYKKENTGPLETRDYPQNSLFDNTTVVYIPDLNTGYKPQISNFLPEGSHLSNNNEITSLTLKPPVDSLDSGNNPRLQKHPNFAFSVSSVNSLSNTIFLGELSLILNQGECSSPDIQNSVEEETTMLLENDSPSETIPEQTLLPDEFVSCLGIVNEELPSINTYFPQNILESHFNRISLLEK
Assay: biochemical
Conditions: not given
Description: The compound binding affinity for IL-23R was estimated by the ability of compounds to displace a fluorophore-labelled reference compound from the human IL-23R. The assay principle relies on Bioluminescence Resonance Energy Transfer (BRET) between a fluorophore-labelled reference compound binding to the IL-23R part of a fusion protein consisting of the IL-23R fused to a Nanoluc luciferase enzyme (Nanoluc). The Nanoluc is placed in the N-terminus in close proximity to the binding domain of the ligand. Upon close proximity between the fluorophore of the fluorophore-labelled compound and the Nanoluc of the fusion protein, bioluminescence energy generated from conversion of a Nanoluc substrate, is transferred to the fluorophore resulting in an increase in BRET. In presence of an unlabelled compound, the unlabelled compound displaces the fluorophore-labelled peptide from its binding site resulting in a decrease in BRET. The concentration for which half of the fluorophore-labelled peptide is displaced by the unlabelled compound depends on the affinity of the compound for the IL-23R, and is termed the IC50 concentration.
The plasmid also contained a gene to confer resistance for the antibiotic hygromycin. A cell line stably expressing the Nluc-IL23R fusion protein was generated by transfection of HEK293 cells with the expression plasmid and selected with hygromycin for 3 weeks in Growth medium consisting of DMEM w/ Glutamax-I containing, 10% V/V FBS, 1% V/V P/S, 1 mM Sodium Pyruvate, and 1X NEAA, and 0.3 mg/mL hygromycin. The remaining cells were propagated and considered a stable expressing Nluc-IL23R fusion protein pool clone.
Cells expressing the Nluc-IL23R fusion protein were expanded in Growth medium and membranes prepared by homogenization of a cell pellet from 18 T175 flasks (4 °C in subsequent steps). The cell pellet was lysed Tris 10 mM, 7.5, 1 mM EDTA and protease inhibitors (Complete, Roche) and homogenized using a 15 mL glass-dounce by 50 strokes. The homogenate was spun at spin @1500 rpm for 10 min, the supernatant transferred to SV-34 tubes and spun at 40000g for 20 min at 4 °C to pellet the crude membranes. The supernatant was then removed, the pellet resuspended in 5 mL buffer containing 50 mM HEPES pH 7.4, 5 mM EGTA, and 5 mM MgCl2, and homogenized. Aliquots of the resuspended and homogenized membranes containing the Nluc-IL23R fusion protein were stored at -80 °C until use.
The plate was sealed with light impermeable plate seals, and incubated on an orbital shaker 400 rpm for 2 hours at room temperature. To determine the BRET ratio, the plate seal was removed and 25 µL of the Nanoluc substrate (Promega N1572) diluted 1:500 was added to each well and incubated for 1-2 minutes on an orbital shaker at 400 rpm. […] The BRET ratio was calculated as the fluorescence from the TAMRA/nanoluc bioluminescence.
Compound potency (IC50) and maximal displacement (% displacement) were estimated by computer-aided curve fitting using a 4-parameter logistic (4PL) non-linear model. […]
In this application, the inventors provide the data as IC50 values.

| SMILES | % displacement (hIL-23R binding) [%] | pIC50 |
| --- | --- | --- |
| CC(C)C[C@]1(C)NC(=O)[C@H](Cc2ccc3ccccc3c2)NC(=O)[C@H](Cc2ccc(OCCN)cc2)NC(=O)[C@@H]2CSCC(=O)CSC[C@H](NC(=O)[C@H](CO)NC(=O)[C@H](Cc3cccnc3)NC(=O)CCNC(=O)CC[C@@H](C(=O)N[C@H](CCCNC(=N)N)C(N)=O)NC1=O)C(=O)N[C@@H](Cc1c[nH]c3ccccc13)C(=O)N[C@@H](CCC(N)=O)C(=O)N2 [Compound 1, [3-Aminopropanoyl](4c)*[3-(3-Pyridyl)-Ala]SC(2a)WQC(2a)[Y(2-aminoethoxy)][2-Nal][2-Me-Leu]E(4c)[{d}R]-[NH2]] ([βAla][3Pal]SCWQC[AEF][2Nal][αMeL]E[dR]-NH2; linker 4-7 via CH2COCH2; lactam N-11) | 105 | 8.27 |
| CC(C)C[C@]1(C)NC(=O)[C@H](Cc2ccc3ccccc3c2)NC(=O)[C@H](Cc2ccc(OCCN)cc2)NC(=O)[C@@H]2CSCC(=O)CSC[C@H](NC(=O)[C@H](CO)NC(=O)CCNC(=O)[C@H](Cc3cccnc3)NC(=O)CC[C@@H](C(=O)N[C@H](CCCNC(=N)N)C(N)=O)NC1=O)C(=O)N[C@@H](Cc1c[nH]c3ccccc13)C(=O)N[C@@H](CCC(N)=O)C(=O)N2 [Compound 2, [3-(3-Pyridyl)-Ala](4c)*[3-Aminopropanoyl]SC(2a)WQC(2a)[Y(2-aminoethoxy)][2-Nal][2-Me-Leu]E(4c)[{d}R]-[NH2]] ([3Pal][βAla]SCWQC[AEF][2Nal][αMeL]E[dR]-NH2; linker 4-7 via CH2COCH2; lactam N-11) | 103 | 8.54 |
| CC(C)C[C@]1(C)NC(=O)[C@H](Cc2ccc3ccccc3c2)NC(=O)[C@H](Cc2ccc(OCCN)cc2)NC(=O)[C@@H]2CCNC(=O)CC[C@H](NC(=O)[C@H](CO)NC(=O)Cc3ccc(cc3)CNC(=O)CC[C@@H](C(=O)NC[C@@H](N[C@@H](Cc3cccnc3)C(N)=O)C(F)(F)F)NC1=O)C(=O)N[C@@H](Cc1c[nH]c3ccccc13)C(=O)N[C@@H](CCC(N)=O)C(=O)N2 [Compound 16, [4-Aminomethyl-phenylacetyl](1c)*SE(2c)WQ[Dab](2c)[Y(2-aminoethoxy)][2-Nal][2-Me-Leu]E(1c)[{d}Gly-CF3][3-(3-Pyridyl)-Ala]-[NH2]] |  | 9.89 |
| CC(C)C[C@]1(C)NC(=O)[C@H](Cc2ccc3ccccc3c2)NC(=O)[C@H](Cc2ccc(OCCN)cc2)NC(=O)[C@@H]2CCNC(=O)CC[C@H](NC(=O)[C@H](CO)NC(=O)Cc3ccc(cc3)CNC(=O)CC[C@@H](C(=O)NC[C@H](N[C@@H](Cc3cccnc3)C(N)=O)C(F)(F)F)NC1=O)C(=O)N[C@@H](Cc1c[nH]c3ccccc13)C(=O)N[C@@H](CCC(N)=O)C(=O)N2 [Compound 17, [4-Aminomethyl-phenylacetyl](1c)*SE(2c)WQ[Dab](2c)[Y(2-aminoethoxy)][2-Nal][2-Me-Leu]E(1c)[Gly-CF3][3-(3-Pyridyl)-Ala]-[NH2]] | 98 |  |
| CNC(=O)[C@H](Cc1cccnc1)NC(=O)[C@H](CCN)NC(=O)[C@@H]1CCC(=O)NCc2ccc(cc2)CC(=O)N(C)[C@@H](CO)C(=O)N[C@H]2CCC(=O)NCC[C@H](NC(=O)[C@H](CCC(N)=O)NC(=O)[C@H](Cc3c[nH]c4ccccc34)NC2=O)C(=O)N[C@@H](Cc2ccc(OCCN)cc2)C(=O)N[C@@H](Cc2ccc3ccccc3c2)C(=O)N[C@@](C)(CC(C)C)C(=O)N1 [Compound 18, [4-Aminomethyl-phenylacetyl](1c)*[N-Me-Ser]E(2c)WQ[Dab](2c)[Y(2-aminoethoxy)][2-Nal][2-Me-Leu]E(1c)[Dab][3-(3-Pyridyl)-Ala]-[NHMe]] ([X1][NMeS]EWQ[Dab][AEF][2Nal][αMeL]E[Dab][3Pal]-NHMe; lactam 3-6, N-10) |  | 10.82 |
| CNC(=O)[C@H](Cc1cncnc1)NC(=O)[C@H](CCN)NC(=O)[C@@H]1CCC(=O)NCc2ccc(cc2)CC(=O)N[C@@H](CO)C(=O)N[C@H]2CCC(=O)NCC[C@H](NC(=O)[C@H](CCC(N)=O)NC(=O)[C@H](Cc3c[nH]c4ccccc34)NC2=O)C(=O)N[C@@H](Cc2ccc(OCCN)cc2)C(=O)N[C@@H](Cc2ccc3ccccc3c2)C(=O)N[C@@](C)(CC(C)C)C(=O)N1 [Compound 19, [4-Aminomethyl-phenylacetyl](1c)*SE(2c)WQ[Dab](2c)[Y(2-aminoethoxy)][2-Nal][2-Me-Leu]E(1c)[Dab][3-(3,5-Pyrimidyl)-Ala]-[NHMe]] | 103 | 10.27 |
| CNC(=O)[C@H](Cc1cccnc1)NC(=O)[C@H](CCN)NC(=O)[C@@H]1CCC(=O)NCc2ccc(cc2)CC(=O)N[C@@H](CO)C(=O)N[C@H]2CCC(=O)NCC[C@H](NC(=O)[C@H](Cc3ccccc3)NC(=O)[C@H](Cc3c[nH]c4ccccc34)NC2=O)C(=O)N[C@@H](Cc2ccc(OCCN)cc2)C(=O)N[C@@H](Cc2ccc3ccccc3c2)C(=O)N[C@@](C)(CC(C)C)C(=O)N1 [Compound 23, [4-Aminomethyl-phenylacetyl](1c)*SE(2c)WF[Dab](2c)[Y(2-aminoethoxy)][2-Nal][2-Me-Leu]E(1c)[Dab][3-(3-Pyridyl)-Ala]-[NHMe]] ([X1]SEWF[Dab][AEF][2Nal][αMeL]E[Dab][3Pal]-NHMe; lactam 3-6, N-10) | 97 |  |
| CNC(=O)[C@H](Cc1cccnc1)NC(=O)[C@H](CCN)NC(=O)[C@@H]1CCC(=O)NCc2ccc(cc2)CC(=O)N[C@@H](CO)C(=O)N[C@H]2CCC(=O)NCC[C@H](NC(=O)[C@H](CCCCNC(C)=O)NC(=O)[C@H](Cc3c[nH]c4ccccc34)NC2=O)C(=O)N[C@@H](Cc2ccc(OCCN)cc2)C(=O)N[C@@H](Cc2ccc3ccccc3c2)C(=O)N[C@@](C)(CC(C)C)C(=O)N1 [Compound 24, [4-Aminomethyl-phenylacetyl](1c)*SE(2c)W[K(Ac)][Dab](2c)[Y(2-aminoethoxy)][2-Nal][2-Me-Leu]E(1c)[Dab][3-(3-Pyridyl)-Ala]-[NHMe]] ([X1]SEWK(Ac)[Dab][AEF][2Nal][αMeL]E[Dab][3Pal]-NHMe; lactam 3-6, N-10) | 97 | 10.85 |
| CNC(=O)[C@H](Cc1cccnc1)NC(=O)[C@H](CCN)NC(=O)[C@@H]1CCC(=O)NCc2ccc(cc2)CC(=O)N[C@@H](CO)C(=O)N[C@H]2CCC(=O)NCC[C@H](NC(=O)[C@H](CCC(=O)N3CCCC3)NC(=O)[C@H](Cc3c[nH]c4ccccc34)NC2=O)C(=O)N[C@@H](Cc2ccc(OCCN)cc2)C(=O)N[C@@H](Cc2ccc3ccccc3c2)C(=O)N[C@@](C)(CC(C)C)C(=O)N1 [Compound 27, [4-Aminomethyl-phenylacetyl](1c)*SE(2c)W[Q(pyrrolidin)][Dab](2c)[Y(2-aminoethoxy)][2-Nal][2-Me-Leu]E(1c)[Dab][3-(3-Pyridyl)-Ala]-[NHMe]] ([X1]SEWE(Pyrrolidide)[Dab][AEF][2Nal][αMeL]E[Dab][3Pal]-NHMe; lactam 3-6, N-10) | 97 |  |

Same assay, conditions: read-out: % displacement (hIL-23R binding)

| SMILES | Emax [%] |
| --- | --- |
| CC(C)C[C@]1(C)NC(=O)[C@H](Cc2ccc3ccccc3c2)NC(=O)[C@H](Cc2ccc(OCCN)cc2)NC(=O)[C@@H]2CCNC(=O)CC[C@H](NC(=O)[C@H](CO)NC(=O)Cc3ccc(cc3)CNC(=O)CC[C@@H](C(=O)NC[C@@H](N[C@@H](Cc3cccnc3)C(N)=O)C(F)(F)F)NC1=O)C(=O)N[C@@H](Cc1c[nH]c3ccccc13)C(=O)N[C@@H](CCC(N)=O)C(=O)N2 [Compound 16, [4-Aminomethyl-phenylacetyl](1c)*SE(2c)WQ[Dab](2c)[Y(2-aminoethoxy)][2-Nal][2-Me-Leu]E(1c)[{d}Gly-CF3][3-(3-Pyridyl)-Ala]-[NH2]] | 101 |
| CNC(=O)[C@H](Cc1cccnc1)NC(=O)[C@H](CCN)NC(=O)[C@@H]1CCC(=O)NCc2ccc(cc2)CC(=O)N(C)[C@@H](CO)C(=O)N[C@H]2CCC(=O)NCC[C@H](NC(=O)[C@H](CCC(N)=O)NC(=O)[C@H](Cc3c[nH]c4ccccc34)NC2=O)C(=O)N[C@@H](Cc2ccc(OCCN)cc2)C(=O)N[C@@H](Cc2ccc3ccccc3c2)C(=O)N[C@@](C)(CC(C)C)C(=O)N1 [Compound 18, [4-Aminomethyl-phenylacetyl](1c)*[N-Me-Ser]E(2c)WQ[Dab](2c)[Y(2-aminoethoxy)][2-Nal][2-Me-Leu]E(1c)[Dab][3-(3-Pyridyl)-Ala]-[NHMe]] ([X1][NMeS]EWQ[Dab][AEF][2Nal][αMeL]E[Dab][3Pal]-NHMe; lactam 3-6, N-10) | 96 |
| CNC(=O)[C@H](Cc1cccnc1)NC(=O)[C@H](CCN)NC(=O)[C@@H]1CCC(=O)NCc2ccc(cc2)CC(=O)N[C@@H](CO)C(=O)N[C@H]2CCC(=O)NCC[C@H](NC(=O)[C@H](C)NC(=O)[C@H](Cc3c[nH]c4ccccc34)NC2=O)C(=O)N[C@@H](Cc2ccc(OCCN)cc2)C(=O)N[C@@H](Cc2ccc3ccccc3c2)C(=O)N[C@@](C)(CC(C)C)C(=O)N1 [Compound 22, [4-Aminomethyl-phenylacetyl](1c)*SE(2c)WA[Dab](2c)[Y(2-aminoethoxy)][2-Nal][2-Me-Leu]E(1c)[Dab][3-(3-Pyridyl)-Ala]-[NHMe]] ([X1]SEWA[Dab][AEF][2Nal][αMeL]E[Dab][3Pal]-NHMe; lactam 3-6, N-10) | 96 |
